Laboratory results from patent publication US12410391B2, “In vitro cell culture mucus systems” (The University of North Carolina at Chapel Hill, priority 2018, dated 2025).

Tested on: human colonic epithelium (monolayer from human colonic stem cells)
Experiment: VIP-stimulated water secretion into the apical reservoir under ALI culture
Assay type: cell-based
Protocol: The inserts were rinsed with PBS×1 prior to cell plating. Intestinal epithelial cells were passaged according to the procedure described above except that the cells were suspended in expansion medium (EM-Table 1) and plated directly onto the top compartment of Transwell inserts. Cells from 1 well of the 6-well plate were dispersed into 6 separate 12-well Transwell inserts (1 mL in the upper [apical] reservoir, and 2 mL in the lower [basal] reservoir). The medium was exchanged every 48 h. To induce cell differentiation and mucus production, the medium was switched to differentiation medium (DM-Table 1) after 5 days. In the submerged culture, 1 mL DM was added in the apical reservoir and 2 mL in the basal reservoir. The medium was exchanged every 48 h thereafter. In the ALI culture, the medium in the apical reservoir was completely aspirated, 1 mL DM or DM-VIP (DM containing 330 ng/mL VIP [AnaSpec, #AS-22872]) was added to the basal reservoir, and medium was exchanged every 24 h thereafter. By day 10, the system was suitable for characterization and cytokine assay.
To verify the function of VIP to stimulate water secretion, human colonic stem cells were cultured under EM for 5 days. At day 5, the basal medium was switched to DM with varying VIP concentration and the cells placed under the ALI culture conditions. After 24 h, the water accumulated in the apical reservoir was collected and weighed with an analytical balance. In the absence of VIP, the accumulation of water in the apical reservoir was not measurable. […] A plateau was reached when VIP concentration was >1 ng/mL. At this saturating concentration, approximately 42 mg/cm^2 water accumulated after a 24 h incubation with VIP, corresponding to a water depth in the reservoir of 420 μm.

In the case of vasoactive intestinal peptide [VIP], the “VIP concentration at which plateau of water secretion was reached” value (ALI culture, 24 h) is reported as over 1 ng/mL, the “water accumulated in apical reservoir” value (saturating VIP concentration, 24 h incubation) is reported as “approximately 42 mg/cm^2” and the “water depth in the reservoir” value (saturating VIP concentration, 24 h incubation, corresponds to the accumulated water) is reported as 420 μm.
